The source of these data is US10676755B2, “Mutated acetohydroxyacid synthase genes in euphorbiaceae and plant material comprising such genes” (priority 2015, dated 2020).

Experiment [1] relates to wt cassava AHAS gene in CHI bacterial cells lacking the endogenous AHAS homolog. The experiment can be described thus: bacterial spot test, serially-diluted cells on herbicide plates. The class given is cell-based, Cassava (Manihot esculenta). As to conditions: negative control wt cassava AHAS gene. The protocol: (§1) Mutations were generated by site-directed mutagenesis (SDM) of the wild-type Cassava AHAS gene 1 and transformed into CHI bacterial cells lacking the endogenous AHAS homolog. Serially-diluted cells were plated onto plates with increasing concentrations of either imazamox (IM) or flumetsulam (TP). Cassava AHAS wt and a canola ALS mutant known to be highly herbicide tolerant were used as negative and positive controls, respectively. Representative set of bacterial spot tests showing the positive and negative controls, some other mutants tested and the W574S mutant. The herbicide concentrations listed on the left-most column correspond to the entire row and columns separate different lines. Each spot test consists of four 1:10 serial dilutions (10-3, 10-4, 10-5 and 10-6) after normalization based on the OD600 of each M9 liquid culture.
Mutations were generated by site-directed mutagenesis (SDM) of the wild-type Cassava AHAS gene 1 and transformed into CHI bacterial cells lacking the endogenous AHAS homolog. Serially-diluted cells were plated onto plates with increasing concentrations of either imazamox (IM) or flumetsulam (TP). Cassava AHAS wt and a canola ALS mutant known to be highly herbicide tolerant were used as negative and positive controls, respectively. […]

Experiment [2] relates to canola ALS mutant in CHI bacterial cells. The description is as above. The class given is cell-based. As to conditions: positive control canola ALS mutant. As to the method: as §1
as §1, with “D376A” for “W574S”

Experiment [3] deals with cassava AHAS W574L mutant in CHI bacterial cells. Put plainly: kill curve assay, colonies counted on herbicide plates. The class given is cell-based, Cassava (Manihot esculenta). As to conditions: growth is inconsistent. The protocol: (§2) Mutants were also tested using a “kill curve” assay where equal numbers of cells containing the mutant of interest were plated onto plates with increasing concentrations of herbicide and the number of resulting colonies counted. Kill curve results averaged between three experiments, each with an average of three technical replicates. Error bars are ±one standard deviation of the averaged data. Results are depicted in FIG. 6.
(§3) Mutants were also tested using a “kill curve” assay where equal numbers of cells containing the mutant of interest were plated onto plates with increasing concentrations of herbicide and the number of resulting colonies counted. Kill curve results averaged between three experiments, each with an average of three technical replicates. Error bars are ±one standard deviation of the averaged data. Results are depicted in FIG. 8.

For experiment [4], the system named is cassava AHAS W574S mutant in CHI bacterial cells. The experiment can be described thus: bacterial spot test, serially-diluted cells on herbicide plates. Type of experiment: cell-based, Cassava (Manihot esculenta). As to conditions: similar to the canola positive control. The protocol:
as §1

Experiment [5] concerns cassava AHAS D376A mutant in CHI bacterial cells. Put plainly: kill curve assay, colonies counted on herbicide plates. The class given is cell-based, Cassava (Manihot esculenta). As to the method:
as §3

For experiment [6] the test system is unchanged. Put plainly: bacterial spot test, serially-diluted cells on herbicide plates. Type of experiment: cell-based, Cassava (Manihot esculenta). As to the method: as §1, with “D376A” for “W574S”
Experiment [7] deals with cassava AHAS W574L mutant in CHI bacterial cells. Described as above. Type of experiment: cell-based, Cassava (Manihot esculenta). As to conditions: growth is inconsistent. As to the method: as §1, with “D376A” for “W574S”
Experiment [8] deals with cassava AHAS W574S mutant in CHI bacterial cells. The experiment can be described thus: kill curve assay, colonies counted on herbicide plates. The class given is cell-based, Cassava (Manihot esculenta). As to the method: as §2

Regarding `COCc1cnc(C2=NC(C)(C(C)C)C(=O)N2)c(C(=O)O)c1` (stereo not drawn) [IM, imazamox], the figures for the “growth of cells on plates containing herbicide” value in experiment [1], in experiment [2] and in experiment [4] were “failed to grow”, “grew on all concentrations” and “robust growth”, respectively. In experiment [2], the “herbicide concentration at which all growth ceased” value came out at 5 mM. The tolerance to herbicide entry in experiment [3], in experiment [5], in experiment [6] and in experiment [7] was “robust tolerance” each time.

`Cc1ccn2nc(S(=O)(=O)Nc3c(F)cccc3F)nc2n1` [TP, flumetsulam]: the “growth of cells on plates containing herbicide” value in experiment [1] is given as “failed to grow”; in experiment [2], “grew on all concentrations”; in experiment [4], “robust growth”. Moreover, in experiment [2], the “herbicide concentration at which all growth ceased” value was determined as 5 mM. Also, the tolerance to herbicide entry is listed as “robust tolerance” in experiment [3], “robust tolerance” in experiment [7] and “enhanced tolerance” in experiment [8].
